From BindingDB's records for doi:10.1021/acs.jmedchem.5b00079 (Saarland University and Helmholtz Institute For …, 2015)

Biological target: T1, Cytochrome P450 11B1, mitochondrial (Homo sapiens, UniProt P15538)
T1 sequence (P15538 whole entry): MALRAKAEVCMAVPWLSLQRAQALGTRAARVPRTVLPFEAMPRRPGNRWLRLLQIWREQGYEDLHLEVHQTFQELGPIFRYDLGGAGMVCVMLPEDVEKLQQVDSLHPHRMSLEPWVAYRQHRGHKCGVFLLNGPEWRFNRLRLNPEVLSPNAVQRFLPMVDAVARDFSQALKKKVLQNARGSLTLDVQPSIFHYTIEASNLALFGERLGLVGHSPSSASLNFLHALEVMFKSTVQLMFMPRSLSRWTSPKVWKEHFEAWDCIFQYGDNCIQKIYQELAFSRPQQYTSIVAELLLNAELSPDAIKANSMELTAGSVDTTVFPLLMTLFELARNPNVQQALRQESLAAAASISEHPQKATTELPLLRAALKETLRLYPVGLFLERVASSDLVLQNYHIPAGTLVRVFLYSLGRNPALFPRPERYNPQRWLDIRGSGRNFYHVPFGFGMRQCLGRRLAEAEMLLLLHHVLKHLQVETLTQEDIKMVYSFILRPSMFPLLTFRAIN
Experiment: Inhibition of human CYP11B1 expressed in V79 MZh cells using [14C]-deoxycorticosterone substrate incubated for 6 hrs by HPTLC method

IC50: 29.5 µM
Structure (SMILES): Cc1nnc2n1-c1c(F)cc(-c3cncc(F)c3)cc1CC2
